From patent US20180282323A1, “Mesoionic imidazole derivatives as insecticides” (BAYER CROPSCIENCE AKTIENGESELLSCHAFT, priority 2015, published 2018) come the findings set out here.

Read-outs that look alike come from different tables or passages of the source.

For data set [1], the system named is Myzus persicae. In words: Myzus persicae oral test. Format: in vivo. The following applies: application rate 20 ppm, oral uptake through parafilm, after 5 days; for pest or weed control at 20 ppm: Myzus persicae, 120 h, read-out: efficacy. As to the method:
Myzus persicae—Oral Test Solvent: 100 parts by weight of acetone
To produce an appropriate active ingredient formulation, 1 part by weight of active ingredient is dissolved with the stated parts by weight of solvent and made up with water until the desired concentration is attained.
50 μl of the active ingredient formulation are transferred into microtitre plates and made up to a final volume of 200 μl with 150 μl of IPL41 insect medium (33%+15% sugar). Subsequently, the plates are sealed with parafilm, which a mixed population of green peach aphids (Myzus persicae) within a second microtitre plate is able to puncture and imbibe the solution through it.
After 5 days, the efficacy in % is determined. 100% means that all the aphids have been killed; 0% means that no aphids have been killed.

Data set [2] in a line: log P by HPLC on reversed-phase column (EEC directive 79/831 Annex V.A8). The class given is physicochemical. As to conditions: for log p a): HPLC on reversed-phase column. The essentials: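 Reversed-phase (C18) HPLC at 43° C, following EEC directive 79/831 Annex V.A8.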
The mark [3] stands for this setting: HPLC on reversed-phase column (footnote a).

For the compound `CCS(=O)(=O)CC(=O)c1c([O-])n(Cc2cnc(Cl)s2)c2cccc[n+]12` [Example I-1-042, 1-[(2-chloro-1,3-thiazol-5-yl)methyl]-3-[(ethylsulphonyl)acetyl]-1H-imidazo[1,2-a]pyridin-4-ium-2-olate], in data set [1], the pest or weed control at 20 ppm was 100%. Also, the chromatographic logP in data set [2] (reversed-phase C18 HPLC column, pH 2.7, HPLC on reversed-phase column (footnote a), read-out: log p) is 1.38; in data set [2] (reversed-phase C18 HPLC column, HPLC-MS, reversed-phase C18, 43° C., calibration with alkan-2-ones, read-out: log P), 1.38.
`Cc1ccc[n+]2c(C(=O)COC3CCCC3)c([O-])n(Cc3cnc(Cl)s3)c12` [Example I-1-302] displayed an efficacy in data set [1] of 100%. Further, the “log p a)” value in data set [2] is recorded as 2.45.
`O=C(CNCc1ccccc1)c1c([O-])n(Cc2cnc(Cl)s2)c2cccc[n+]12` [Example I-1-053] came in with an efficacy in data set [1] of 90%. Besides, the log p in data set [2] (setting [3]) worked out at 1.
In data set [1], `CC(c1cnc(Cl)s1)n1c([O-])c(C(=O)NC2(C#N)CC2)[n+]2ccccc12` (stereo not drawn) [Example I-1-289] displayed an efficacy of 100%. The “log p a)” value in data set [2] amounted to 1.86.
The compound `COC(=O)c1c([O-])n(Cc2cncc(Cl)c2)c2cccc[n+]12` [Example I-1-158] came in with an efficacy in data set [1] of 100%. Moreover, in data set [2] (setting [3]), the log p is on record as 1.15.
Compound `CC(c1ccc(Cl)nc1)n1c([O-])c(C(=O)Nc2ccccc2)[n+]2ccccc12` (stereo not drawn) [Example I-1-229] showed an efficacy in data set [1] of 100%. In data set [2], the “log p a)” value amounted to 2.8.
With `COCC(=O)c1c([O-])n(Cc2ccc(Cl)nc2)c2ccc(C)c[n+]12` [Example I-1-167], the efficacy in data set [1] stood at 100%. In addition, the log p in data set [2] (setting [3]) is 1.48.
Turning to `CCNC(=O)c1c([O-])n(Cc2cnc(C)cn2)c2cccc[n+]12` [Example I-1-244], the efficacy in data set [1] was determined as 90%. Also, the “log p a)” value in data set [2] is recorded as 1.07.
In the case of `Cc1ccc[n+]2c(C(=O)Cn3cncn3)c([O-])n(Cc3cnc(Cl)s3)c12` [Example I-1-096], the efficacy in data set [1] was found to be 100%. In data set [2] (setting [3]), this compound yielded a log p of 1.31.
The corresponding values for `COC(=O)c1c([O-])n(Cc2ccc(Cl)nc2)c2cccc(C)[n+]12` [Example I-1-157] are 100% and 1.27.
The like results for `O=C(CCl)c1c([O-])n(Cc2ccc(Cl)nc2)c2cccc[n+]12` [Example I-1-001] were, in that order, 100% and 1.62.
For the compound `O=C(Nc1ccc(Cl)nc1)c1c([O-])n(Cc2cnc(Cl)s2)c2cccc[n+]12` [Example I-1-146], the efficacy in data set [1] is 100%. Further, the log p in data set [2] (setting [3]) is given as 2.55.
The corresponding values for `CCN(CC(=O)c1c([O-])n(Cc2ccc(Cl)nc2)c2cccc[n+]12)C(C)=O` [Example I-1-071] are 90% and 1.4.
The like results for `O=C(COCc1ccccc1)c1c([O-])n(Cc2cncnc2)c2cccc[n+]12` [Example I-1-059] were, in that order, 100% and 1.44.
The like results for `O=C(COc1ccc(Cl)nc1)c1c([O-])n(Cc2cnc(Cl)s2)c2cccc[n+]12` [Example I-1-084] were, in that order, 100% and 2.17.
Take `Cc1ccc[n+]2c(C(=O)CCl)c([O-])n(Cc3ccc(Cl)nc3)c12` [Example I-1-159]: in data set [1], the efficacy is reported as 100%. Besides, the log p in data set [2] (setting [3]) was 1.78.
With `CCOCC(=O)c1c([O-])n(C(C)c2ccc(Cl)nc2)c2cccc[n+]12` (stereo not drawn) [Example I-1-186], in data set [1], the efficacy was determined as 100%. The log p in data set [2] (setting [3]) was found to be 1.58.
The like results for `O=C(COc1ccccc1Cl)c1c([O-])n(Cc2cnc(Cl)s2)c2cccc[n+]12` [Example I-1-078] were, in that order, 90% and 2.77.
The like results for `O=C(NC1CC1)c1c([O-])n(Cc2ccc(Cl)nc2)c2cccc[n+]12` [Example I-1-133] were, in that order, 90% and 1.85.
In turn, `Cc1ccc[n+]2c(C(=O)Nc3c(F)cccc3F)c([O-])n(C(C)c3ccc(Cl)nc3)c12` (racemic) [Example I-1-275] came in with an efficacy in data set [1] of 100%. For the same compound, in data set [2], the “log p a)” value stood at 2.67.
Consider `O=C(CCl)c1c([O-])n(Cc2ccc(Cl)nc2)c2c(F)cc(F)c[n+]12` [Example I-1-110], for which, in data set [1], the efficacy was found to be 100%. In addition, the log p in data set [2] (setting [3]) is 1.96.
`COC(=O)c1c([O-])n(Cc2cnc(C)cn2)c2cccc[n+]12` [Example I-1-215] registered an efficacy in data set [1] of 100%. Also, in data set [2], the “log p a)” value came to 0.80.
For the compound `CCOCC(=O)c1c([O-])n(Cc2ccc(Cl)nc2)c2c(C)ccc[n+]12` [Example I-1-182], the efficacy in data set [1] worked out at 100%. The compound also yielded a log p in data set [2] (setting [3]) of 1.6.
In the case of `CCOCC(=O)c1c([O-])n(Cc2ccc(C(F)(F)F)nc2)c2cccc[n+]12` [Example I-1-188], the efficacy in data set [1] is recorded as 100%. The same compound had a log p in data set [2] (setting [3]) of 1.72.
The like results for `O=C(COc1ccc(F)cc1)c1c([O-])n(Cc2ccc(Cl)nc2)c2cccc[n+]12` [Example I-1-031] were, in that order, 100% and 2.27.
In turn, `COc1cccc(NC(=O)c2c([O-])n(Cc3ccc(Cl)nc3)c3cccc[n+]23)c1` [Example I-1-299] yielded an efficacy in data set [1] of 100%. In addition, in data set [2], the “log p a)” value is 2.55.
In data set [1], `Cc1cc[n+]2c(C(=O)CCl)c([O-])n(Cc3cnc(Cl)s3)c2c1` [Example I-1-126] displayed an efficacy of 90%. The same compound had a log p in data set [2] (setting [3]) of 1.96.
With `Cc1cccc2n(Cc3cnc(Cl)s3)c([O-])c(C(=O)NC3CC3)[n+]12` [Example I-1-190], the efficacy in data set [1] is listed as 100%. Also, in data set [2] (setting [3]), the log p was 1.16.
`Cc1cnc(Cn2c([O-])c(C(=O)Nc3c(F)cccc3F)[n+]3ccccc23)cn1` [Example I-1-269]: in data set [1], the efficacy worked out at 100%. In data set [2], the “log p a)” value is listed as 1.75.
For `COc1ccc(NC(=O)c2c([O-])n(Cc3cnc(Cl)s3)c3c(C)ccc[n+]23)cc1` [Example I-1-208], the efficacy in data set [1] came to 100%. In data set [2], the “log p a)” value was found to be 2.91.
The corresponding values for `O=C(NC1CC1)c1c([O-])n(Cc2ccc(C(F)(F)F)nc2)c2cccc[n+]12` [Example I-1-200] are 90% and 1.87.
The corresponding values for `Cc1cnc(Cn2c([O-])c(C(=O)Nc3ccccc3)[n+]3ccccc23)cn1` [Example I-1-218] are 100% and 2.05.
In data set [1], `COC(=O)c1c([O-])n(Cc2cnc(Cl)c(Cl)c2)c2cccc[n+]12` [Example I-1-199] yielded an efficacy of 100%. Further, the “log p a)” value in data set [2] is recorded as 1.66.
In data set [1], `CCOCC(=O)c1c([O-])n(Cc2ccc(Cl)nc2)c2cc(C(F)(F)F)cc[n+]12` [Example I-1-079] gave an efficacy of 90%. The log p in data set [2] (setting [3]) is listed as 2.17.
Regarding `COC(=O)c1c([O-])n(Cc2ccc(Cl)nc2)c2nccc[n+]12` [Example I-4-001, 1-[(6-Chloropyridin-3-yl)methyl]-3-(methoxycarbonyl)-1H-imidazo[1,2-a]pyrimidin-4-ium-2-olate], the pest or weed control at 20 ppm in data set [1] was 100%. In addition, the chromatographic logP in data set [2] and in data set [2] (pH 2.7) was 1.15 in each case.
`Cc1ccc[n+]2c(C(=O)Nc3ncccn3)c([O-])n(Cc3ccc(Cl)nc3)c12` [Example I-1-265] had an efficacy in data set [1] of 90%. Besides, in data set [2], the “log p a)” value was found to be 1.51.
The like results for `COC(=O)c1c([O-])n(Cc2ccc(F)nc2)c2c(C)ccc[n+]12` [Example I-1-214] were, in that order, 100% and 1.21.
Compound `COCC(=O)c1c([O-])n(Cc2cnc(Cl)s2)c2ccc(C)c[n+]12` [Example I-1-174] had an efficacy in data set [1] of 100%. In addition, the log p in data set [2] (setting [3]) was 1.52.
Regarding `Cc1ccc[n+]2c(C(=O)Nc3ccccc3)c([O-])n(Cc3cnc(Cl)s3)c12` [Example I-1-211], in data set [1], the efficacy was 90%. Also, in data set [2], the “log p a)” value is on record as 3.1.
Turning to `COCC(=O)c1c([O-])n(Cc2ccc(C(F)(F)F)nc2)c2cccc[n+]12` [Example I-1-180], the efficacy in data set [1] stood at 100%. This compound also returned a log p in data set [2] (setting [3]) of 1.49.
As to `CCCNC(=O)c1c([O-])n(C(C)c2ccc(Cl)nc2)c2cccc[n+]12` (stereo not drawn) [Example I-1-249], in data set [1], the efficacy amounted to 100%. In addition, the “log p a)” value in data set [2] is on record as 2.02.
As for `O=C(COc1cccnc1)c1c([O-])n(Cc2cnc(Cl)s2)c2cccc[n+]12` [Example I-1-018], the efficacy in data set [1] came out at 100%. This compound gave a log p in data set [2] (setting [3]) of 1.
In data set [1], `Cc1ccc[n+]2c(C(=O)Cn3cccn3)c([O-])n(Cc3cnc(Cl)s3)c12` [Example I-1-251] displayed an efficacy of 100%. Moreover, in data set [2], the “log p a)” value is recorded as 1.69.
`CCNC(=O)c1c([O-])n(Cc2cnc(Cl)cn2)c2cccc[n+]12` [Example I-1-278] came in with an efficacy in data set [1] of 100%. Also, in data set [2], the “log p a)” value was found to be 1.51.
Take `COCC(=O)c1c([O-])n(Cc2ccc(Cl)nc2)c2cccc(C)[n+]12` [Example I-1-166]: the efficacy in data set [1] worked out at 100%. For the same compound, in data set [2] (setting [3]), the log p is 1.33.
Take `CCOCC(=O)c1c([O-])n(Cc2cnc(Cl)s2)c2ccc(Cl)c[n+]12` [Example I-1-119]: the efficacy in data set [1] is recorded as 100%. The log p in data set [2] (setting [3]) was determined as 1.96.
For `COCC(=O)c1c([O-])n(Cc2cnc(OC)s2)c2ccc(C)c[n+]12` [Example I-1-173], in data set [1], the efficacy was 100%. In data set [2] (setting [3]), this compound yielded a log p of 1.35.
